Reference: ChEMBL document CHEMBL3045861, “Synthesis and insecticidal activity of N-tert-butyl-N,N'-diacylhydrazines containing 1,2,3-thiadiazoles” (2011)
Converted amounts (≈) assume the structure as drawn.

How the values were obtained:
Type in all cases: functional
Culex pipiens pallens [1] = test: Insecticidal activity against Culex pipiens pallens (mosquito) fourth-instar larvae assessed as insect mortality at 2 ug/mL measured 96 hr post compound exposure
Plutella xylostella [2] = test: Insecticidal activity against Plutella xylostella (diamondback moth) second-instar larvae grown on compound treated fresh cabbage leaves assessed as insect mortality at 200 ug/mL measured 96 hr post compound exposure by leaf film feeding method
Culex pipiens pallens [3] = test: Insecticidal activity against Culex pipiens pallens (mosquito) fourth-instar larvae assessed as insect mortality at 1 ug/mL measured 96 hr post compound exposure
Culex pipiens pallens [4] = test: Insecticidal activity against Culex pipiens pallens (mosquito) fourth-instar larvae assessed as insect mortality at 0.5 ug/mL measured 96 hr post compound exposure
Plutella xylostella [5] = test: Insecticidal activity against Plutella xylostella (diamondback moth) second-instar larvae grown on compound treated fresh cabbage leaves assessed as insect mortality at 400 ug/mL measured 96 hr post compound exposure by leaf film feeding method
Plutella xylostella [6] = test: Insecticidal activity against Plutella xylostella (diamondback moth) second-instar larvae grown on compound treated fresh cabbage leaves assessed as insect mortality measured 96 hr post compound exposure by leaf film feeding method

| SMILES | mortality at 2 µg/mL (Culex pipiens pallens [1]) [%] | mortality at 200 µg/mL (Plutella xylostella [2]) [%] | mortality at 1 µg/mL (Culex pipiens pallens [3]) [%] | mortality at 0.5 µg/mL (Culex pipiens pallens [4]) [%] | mortality at 400 µg/mL (Plutella xylostella [5]) [%] | LC50 (Plutella xylostella [6]) [µg/mL] |
| --- | --- | --- | --- | --- | --- | --- |
| Cc1nnsc1C(=O)N(NC(=O)c1ccc([N+](=O)[O-])cc1)C(C)(C)C | 30 | 33 |  |  |  |  |
| Cc1nnsc1C(=O)N(NC(=O)c1cccc([N+](=O)[O-])c1)C(C)(C)C | 10 | 34 |  |  |  |  |
| Cc1nnsc1C(=O)N(NC(=O)c1ccccc1[N+](=O)[O-])C(C)(C)C | 20 | 16 |  |  |  |  |
| Cc1nnsc1C(=O)N(NC(=O)c1cccc(C(F)(F)F)c1)C(C)(C)C | 100 | 32 | 100 | 0 |  |  |
| Cc1nnsc1C(=O)N(NC(=O)c1ccc(C(F)(F)F)cc1)C(C)(C)C | 40 | 13 |  |  |  |  |
| Cc1nnsc1C(=O)N(NC(=O)c1ccc(Cl)cc1)C(C)(C)C | 20 |  |  |  | 43 |  |
| Cc1nnsc1C(=O)N(NC(=O)c1cccc(Cl)c1)C(C)(C)C | 0 | 25 |  |  |  |  |
| Cc1nnsc1C(=O)N(NC(=O)c1ccccc1Cl)C(C)(C)C | 20 | 24 |  |  |  |  |
| COc1cccc(C(=O)NN(C(=O)c2snnc2C)C(C)(C)C)c1 | 10 |  |  |  | 10 |  |
| COc1ccc(C(=O)NN(C(=O)c2snnc2C)C(C)(C)C)cc1 | 10 |  |  |  | 28 |  |
| COc1ccccc1C(=O)NN(C(=O)c1snnc1C)C(C)(C)C | 10 | 29 |  |  |  |  |
| Cc1ccc(C(=O)NN(C(=O)c2snnc2C)C(C)(C)C)cc1 | 0 | 37 |  |  |  |  |
| Cc1cccc(C(=O)NN(C(=O)c2snnc2C)C(C)(C)C)c1 | 20 | 12 |  |  |  |  |
| Cc1ccccc1C(=O)NN(C(=O)c1snnc1C)C(C)(C)C | 100 | 68 | 100 | 30 |  |  |
| Cc1nnsc1C(=O)NN(C(=O)c1ccc([N+](=O)[O-])cc1)C(C)(C)C | 10 | 5 |  |  |  |  |
| Cc1nnsc1C(=O)NN(C(=O)c1cccc([N+](=O)[O-])c1)C(C)(C)C | 30 |  |  |  | 23 |  |
| Cc1nnsc1C(=O)NN(C(=O)c1ccccc1[N+](=O)[O-])C(C)(C)C | 10 |  |  |  | 45 |  |
| Cc1nnsc1C(=O)NN(C(=O)c1ccc(C(F)(F)F)cc1)C(C)(C)C | 30 | 5 |  |  |  |  |
| Cc1nnsc1C(=O)NN(C(=O)c1cccc(C(F)(F)F)c1)C(C)(C)C | 40 | 46 |  |  |  |  |
| Cc1nnsc1C(=O)NN(C(=O)c1ccccc1C(F)(F)F)C(C)(C)C | 10 | 15 |  |  |  |  |
| Cc1nnsc1C(=O)NN(C(=O)c1ccc(Cl)cc1)C(C)(C)C | 100 | 25 | 100 | 10 |  |  |
| Cc1nnsc1C(=O)NN(C(=O)c1cccc(Cl)c1)C(C)(C)C | 30 | 0 |  |  |  |  |
| Cc1nnsc1C(=O)NN(C(=O)c1ccccc1Cl)C(C)(C)C | 10 | 79 |  |  |  | 28 (≈ 79.4 µM) |
| COc1cccc(C(=O)N(NC(=O)c2snnc2C)C(C)(C)C)c1 | 20 | 37 |  |  |  |  |
| COc1ccc(C(=O)N(NC(=O)c2snnc2C)C(C)(C)C)cc1 | 10 | 25 |  |  |  |  |
| COc1ccccc1C(=O)N(NC(=O)c1snnc1C)C(C)(C)C | 10 |  |  |  | 30 |  |
| Cc1cccc(C(=O)N(NC(=O)c2snnc2C)C(C)(C)C)c1 | 20 | 0 |  |  |  |  |
| Cc1ccc(C(=O)N(NC(=O)c2snnc2C)C(C)(C)C)cc1 | 10 | 15 |  |  |  |  |
| Cc1ccccc1C(=O)N(NC(=O)c1snnc1C)C(C)(C)C | 20 | 8 |  |  |  |  |
| CCc1ccc(C(=O)NN(C(=O)c2cc(C)cc(C)c2)C(C)(C)C)cc1 [TEBUFENOZIDE] | 100 | 40 | 100 | 60 |  | 26 (≈ 73.8 µM) |
